Assay results taken from patent US4699903A, “Therapeutic use of tin diiododeuteroporphyrin” (The Rockefeller University, priority 1987, dated 1987).
Values joined by “and” are separate entries in the source; they are usually repeats but may differ in a detail not shown here. Equal values may be shown once. Read-outs that look alike come from different tables or passages of the source. One block for each compound: values may come before it.

What was measured:
[1] = system: heme; experiment: Heme excretion in bile after simultaneous i.v. heme and SnI2 DP, bile duct cannulated adult male rats; type: in vivo, rat; conditions: heme 6.1 μmol/kg b.w. i.v. simultaneously
Procedure: (§1) Simultaneous intraveous (IV) administration of heme (6.1 μmol/kg b.w.) and SnI2 DP was examined in four pairs of bile duct cannulated adult male rats. The effect of simultaneous administration of heme and SnI2 DP on heme levels in bile and tissue heme oxygenase activity are shown in Tables V and VI respectively.
(§2) Each group was administered heme (6.1 μmol/kg b.w.) simultaneously with either SnI2 DP or saline.

[2] = system: heme oxygenase; experiment: Hepatic heme oxygenase activity in ALA-treated 7-day old suckling rats; type: in vivo, rat; conditions: ALA 50 μmmol/100 g at 0, 4 and 8 hours, sacrificed 16 hours after last ALA
Procedure: (§3) The next study established the ability of SnI2 DP to inhibit the ability of γ-aminolevulinic acid (ALA) to produce jaundice. This study of the efficacy of SnI2 DP to control hyperbilirubinemia thereby preventing the jaundice which develops in rats treated 7 days after birth with ALA is described by Drummond and Kappas, J. Clin. Invest. 74, 142-149 (1984). In the test, ALA (50 μmmol/100 g body weight) is administered to suckling 7 day old rats at 0, 4 and 8 hours, the animals sacrificed 16 hours after the last administration of ALA, and the serum biliribin measured.
(§4) Heme oxygenase was determined as described by Drummond and Kappas Proc. Natl. Acad. Sci. USA 78: 6466(1981).

[3] = system: serum bilirubin; experiment: Serum bilirubin levels in newborn rats; type: in vivo, rat
Procedure: (§5) The in vivo ability of SnI2 DP to reduce serum bilirubin was established by studies in neonatal rats. The studies were conducted with four separate litters each containing ten neonates.
(§6) To prepare the solution for parenteral administration, SnI2 DP was taken up in a small volume of 0.2N sodium hydroxide, adjusted to pH 7.4 with 1N hydrochloric acid and made up to final volume with 0.9% sodium chloride. The solution as prepared and used contained a final SnI2 DP concentration of 10 μmol/kg body weight in each 0.1 ml injection volume. Control neonates received 0.1 ml of 0.9% sodium chloride at birth. One group of animals was sacrificed at 24 hours which is normally the peak of bilirubin for neonate rates. The total bilirubin in serum was estimated by the method of Roth, Clin. Chem. Acta, 17 487-492, 1967.

[4] = Singlet and triplet lifetimes; type: physicochemical
Procedure: (3) Singlet and triplet lifetimes: The singlet lifetime of SnI2 DP was determined to be 23 psec (this is at the lower levels of instrument detection). The singlet lifetimes of SnPP and SnMP are 500-600 p sec. The triplet lifetime of SnI2 DP was determined to be 0.2 millisec. The triplet lifetimes of SnPP and SnMP are 0.5 and 2.5 milliseconds respectively.

[5] = system: heme oxygenase; experiment: Tissue heme oxygenase activity in bile duct cannulated adult rats; type: in vivo, rat; conditions: i.v. 10 μmol/kg b.w., n=5
Procedure: (§7) In the next in vivo test designed to measure the decrease in bilirubin production, SnI2 DP was administered intravenously to five adult rats, 12-15 weeks old at a dose of 10 μmol/kg body weight. Five control rats were administered saline. The bile duct was cannulated and the bile fluid analyzed for bilirubin content.
(§8) In addition, the activity of hepatic, renal and splenic heme oxygenase was decreased in bile duct cannulated animals administered SnI2 DP.
(§9) SnI2 DP administered i.v. at a dose of 10 μmol/kg b.w.
(§10) When compared to saline treated controls, n=5.

[6] = target: T1, heme oxygenase (Rattus norvegicus, UniProt P06762); experiment: as above; type: in vivo; set-up: from tissue; conditions: i.v. 10 μmol/kg b.w., n=5
T1 sequence (P06762 1-289): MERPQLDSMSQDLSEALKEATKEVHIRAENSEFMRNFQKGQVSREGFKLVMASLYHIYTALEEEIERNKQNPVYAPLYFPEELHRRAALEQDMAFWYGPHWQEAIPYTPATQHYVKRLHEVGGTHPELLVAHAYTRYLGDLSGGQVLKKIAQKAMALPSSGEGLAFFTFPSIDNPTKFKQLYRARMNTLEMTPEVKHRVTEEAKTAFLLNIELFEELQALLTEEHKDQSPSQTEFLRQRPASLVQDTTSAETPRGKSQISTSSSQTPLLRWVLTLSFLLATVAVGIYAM
Procedure: as §7, §8, §9, §10

[7] = target: T1, heme oxygenase; experiment: Tissue heme oxygenase activity after simultaneous administration of heme; type: in vivo; set-up: from tissue; conditions: heme 6.1 μmol/kg b.w. simultaneously, n = 4
Procedure: as §1, §2

[8] = Fluorescence characteristics in pyridine; type: physicochemical
Procedure: (2) Fluorescence characteristics: A 1 μM solution of SnI2 DP in pyridine was excited at 400 nm and 2 emission peaks were detected at 578 nm and 635 nm. The measurable fluorescence represents less than 5% of that found for SnPP and SnMP.

[9] = system: biliary bilirubin; experiment: Drop in biliary bilirubin production in bile duct cannulated adult rats; type: in vivo, rat
Procedure: as §7

[10] = system: heme oxygenase; experiment: Tissue heme oxygenase activity in newborn rats after SnI2 DP; type: in vivo, rat
Procedure: as §5, §6, §4

[11] = system: heme oxygenase; experiment: Tissue heme oxygenase activity after simultaneous administration of heme; type: in vivo, rat; conditions: heme 6.1 μmol/kg b.w. simultaneously, n = 4
Procedure: as §1, §2

[12] = system: serum bilirubin; experiment: Serum bilirubin in ALA-treated hyperbilirubinemia, 7-day old suckling rats; type: in vivo, rat; conditions: ALA 50 μmmol/100 g at 0, 4 and 8 hours, sacrificed 16 hours after last ALA
Procedure: as §3

[13] = target: T1, heme oxygenase; experiment: Inhibition of heme oxygenase conversion of heme to bilirubin, rat spleen microsomes; type: biochemical; set-up: using rat spleen microsomes as the source of heme oxygenase; from tissue; host or cells: rat spleen microsomes; conditions: for Ki: rat spleen microsomes; for inhibition constant compared with that of SnI2 DP: heme oxygenase
Procedure: In an initial study using rat spleen microsomes as the source of heme oxygenase the ability of SnI2 DP to inhibit the activity of heme oxygenase to convert heme to bilirubin was determined.
Km=rate constant for heme oxygenase
KmAPP =rate constant for heme oxygenase in the presence of SnI2 DP

singlet lifetime [4]: 23 psec
triplet lifetime [4]: 0.2 millisec
Heme Oxygenase Spleen [6]: 5.37 ± 1.09 nmol/mg p h
Heme Oxygenase Spleen [7]: 8.15 ± 0.52 nmol/mg p h
fluorescence quenched by comparison with SnPP [8]: 95%
measurable fluorescence as % of that found for SnPP and SnMP ([8]; 1 μM solution in pyridine, excited at 400 nm): less than 5%
Ki ([13]; Lineweaver Burke plots, average of four determinations, read-out: inhibition constant Ki): 69 ± 7 nM
Ki ([13]; four separate determinations, read-out: Ki, separate determinations): 57 nM and 88 nM and 62 nM and 70 nM
Compound: tin diiododeuteroporphyrin [SnI2 DP]
Heme excreted in bile (% of administered dose), Average ([1]; average of 4 experiments): 44.9 ± 4.79 % of administered dose
Heme excreted in bile (% of administered dose) ([1]; single experiments 1-4): 51.8 % of administered dose and 48.8 % of administered dose and 48.2 % of administered dose and 30.7 % of administered dose
Heme Oxygenase Liver [2]: 8.29 ± 0.48 nmol/mg p h
Serum Bilirubin ([3]; newborn rats, 10 μmol/kg at birth, 24 hours): 0.34 ± 0.02 mg/dL
activity in preventing serum bilirubin increase, as % of that of SnMP ([3]; rat neonates): about 10%
activity in preventing serum bilirubin increase, compared with SnPP ([3]; rat neonates): roughly the same
photosensitizing potential compared with SnPP and SnMP ([4]; inferred from fluorescence and triplet lifetime): less photosensitizing potential
Heme Oxygenase Kidney [5]: 0.45 ± 0.03 nmol/mg p h
Heme Oxygenase Liver [5]: 2.06 ± 0.75 nmol/mg p h
Drop in biliary bilirubin production, % decrease ([9]; adult rats, 10 μmol/kg i.v., bile duct cannulated, single experiments 1-5): 60% and 35% and 47% and 44% and 48%
average difference between treated and control decline in biliary bilirubin ([9]; adult rats, 10 μmol/kg i.v., p<0.01): 21%
ability to lower heme oxygenase activity, serum and bile bilirubin levels, compared with SnMP ([9]; rats): not as effective as SnMP
kidney heme oxygenase activity ([10]; neonates, repeated test, 48 hours after birth): 0.88 nmol/mg p h
Heme Oxygenase Kidney ([10]; newborn rats, 10 μmol/kg at birth, 24 hours, kidney bulked): 1.13 nmol/mg p h
Heme Oxygenase Spleen ([10]; newborn rats, 10 μmol/kg at birth, 24 hours, spleen bulked): 3.74 nmol/mg p h
Heme Oxygenase Liver ([10]; newborn rats, 10 μmol/kg at birth, sacrificed at 24 hours): 8.07 ± 0.06 nmol/mg p h
Heme Oxygenase Kidney [11]: 1.04 ± 0.22 nmol/mg p h
Heme Oxygenase Liver [11]: 5.03 ± 0.72 nmol/mg p h
Serum Bilirubin [12]: 0.54 ± 0.02 mg/dL

singlet lifetime [4]: 500-600 psec
triplet lifetime [4]: 0.5 millisec
inhibition constant compared with that of SnI2 DP [13]: approximately the same
Compound: C=Cc1c2[n-]c(c1C)/C=c1\[n-]/c(c(C)c1C=C)=C\c1[n-]c(c(CCC(=O)O)c1C)C=c1[n-]/c(c(C)c1CCC(=O)O)=C\2.[Sn+4] [SnPP, tin protoporphyrin IX]

Compound: NCC(=O)CCC(=O)O [ALA, γ-aminolevulinic acid, reference compound]
Heme Oxygenase Liver [2]: 11.29 ± 0.33 nmol/mg p h
Serum Bilirubin [12]: 0.99 ± 0.06 mg/dL

singlet lifetime [4]: 500-600 psec
triplet lifetime [4]: 2.5 millisec
inhibition constant compared with that of SnI2 DP [13]: approximately the same
Compound: tin mesoporphyrin [SnMP]
